Marks after values point to notes of the source that are not given here.
What was measured:
[1] = system: PBMCs; experiment: Human PBMC proliferation assay (3H-thymidine incorporation); format: cell-based; conditions: Experiment A; for mean cpm: 2 μg/ml
[2] = system: mouse lung; experiment: Induction of immune-associated genes in the mouse lung after intranasal treatment (quantitative PCR); format: in vivo, BALB/c mice; conditions: 20 ug intranasal, 6 hrs
Procedure: The genes evaluated included genes encoding cytokines, chemokines, cell surface molecules, transcription factors, metalloproteases, and other molecules. The study was performed at Northview Pacific Laboratories (Hercules, Calif.) with 6-8 week old female BALB/c mice from Jackson Labs (Bar Harbor, Me.). […] Therefore, at 6 hrs the lungs were harvested and snap-frozen in liquid nitrogen and stored at −80° C. for later use. Total RNA was isolated using RNeasy mini kits (Qiagen Inc., Valencia, Calif.). The RNA samples were DNAse-treated (Roche Diagnostics, Mannheim, Germany) and converted into cDNA using Superscript II Rnase H-Reverse Transcriptase (Invitrogen, Rockville Md.) as described in Scheerens et al., 2001, Eur. J. of Immunology 31:1465-74. The cDNA samples were pooled per group and in each pooled sample the expression of mRNA of 75 genes was measured using real-time quantitative PCR (ABI Prism 5700, Perkin Elmer Applied Biosystems) and syber green (Qiagen Inc.). In addition to the genes of interest, in each sample the mRNA expression of a housekeeping gene was measured (HPRT or ubiquitin). In order to correct for the amount of RNA in each sample, all data were calculated relative to the expression of the housekeeping gene.

[3] = system: CD19+ B cells; experiment: Human B cell proliferation assay (3H-thymidine incorporation); conditions: 2 μg/ml; for cpm1 / cpm2 / cpm3 / mean cpm / mean of both: B cells
[4] = system: hepatitis B surface antigen (HBsAg); conditions: in vivo
[5] = system: mice; experiment: Serum cytokines (IL-12 p40, IL-6, TNF-α) after subcutaneous injection in mice; format: in vivo; conditions: 20 ug subcutaneous, blood 2 hours later
Procedure: Blood was collected 2 hours later. For the LPS positive control group, mice were injected intraperitoneally with a 200 ul volume, and blood was collected 1.5 hours later (i.e., at the peak of LPS induced TNF-α activity). The blood was clotted and the serum was prepared and stored at −80° C. until assayed. Serum cytokines were assayed using Biosource cytoscreen kits for TNF-α and Pharmingen antibody pairs for mIL-6 and mIL-12. All samples were assayed in duplicate.

[6] = system: human PBMCs; experiment: Human PBMC cytokine response assay (IFN-γ and IFN-α in cell-free medium by ELISA), with or without cPLGA; format: cell-based;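 as to IFN-α (pg/ml) mean: 20 µg/mL compound for 24 hours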;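 as to IFN-γ (pg/ml) mean: 20 µg/mL compound for 24 hours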
[7] = Water solubility of spacer precursor (dialcohol form); format: physicochemical; conditions: tested as dialcohol precursor of the dodecyl spacer
Excerpt: Thus, the definition of spacers excludes microcarriers or nanocarriers. […] The form of the spacer moiety used for testing its water solubility is generally its most closely related unactivated and unprotected spacer precursor molecule. For example, C-19 contains a spacer moiety including a dodecyl group with phosphorothioate diester linkages at the C-1 and C-12 positions, thereby connecting the spacer moiety to the nucleic acid moieties. […] These higher water solubility spacers include, without limitation, propane 1,3 diol; glycerol; butane-1,4-diol; pentane-1,5-diol; hexane-1,6-diol; triethylene glycol, tetraethylene glycol and HEG.

[8] = donor 28066, 20 ug/ml, 24 h, + PLGA = premixed with 100 μg/ml cPLGA
[9] = donor 28067, 20 ug/ml, 24 h, + PLGA = premixed with 100 μg/ml cPLGA
[10] = donor 28068, 20 ug/ml, 24 h, + PLGA = premixed with 100 μg/ml cPLGA
[11] = mean of Donors 1-2, 20 μg/ml, 24 h
[12] = mean of Donors 9-12, 20 μg/ml, 24 h
[13] = mean of donors 28065-28068, 20 ug/ml, 24 h, + PLGA = premixed with 100 μg/ml cPLGA
[14] = mean of donors 28185-28188, Table 15

5′-TCGTCGA-3′- C3-5′-ACGTTCG-3′-C3-5′-AGATGAT-3′ [Compound C-9]
cpm1 ([1]; Donor 146, 2 μg/ml): 55348 cpm | cpm2 ([1]; Donor 146, 2 μg/ml): 24857 cpm | cpm3 ([1]; Donor 146, 2 μg/ml): 39953 cpm | mean cpm ([1]; Donor 146 mean): 40053 cpm | cpm1 ([1]; Donor 147, 2 μg/ml): 88106 cpm | cpm2 ([1]; Donor 147, 2 μg/ml): 65413 cpm | cpm3 ([1]; Donor 147, 2 μg/ml): 90665 cpm | mean cpm ([1]; Donor 147 mean): 81395 cpm | mean of both ([1]; mean of Donors 146 and 147, 2 μg/ml): 60724 cpm | mRNA expression of IFN-alpha in the lung, in words [2]: considerably higher mRNA expression of IFN-alpha | mRNA expression of immune-associated genes in the lung, in words ([2]; vs P-7 treated mice): potently induce the expression of a variety of genes | B cell proliferation, in words ([3]; 48 h plus 8 h 3H-thymidine pulse): cause B cells to proliferate | cpm1 ([3]; Donor 146, Experiment A): 35365 cpm | cpm2 ([3]; Donor 146, Experiment A): 42705 cpm | cpm3 ([3]; Donor 146, Experiment A): 45231 cpm | mean cpm ([3]; Donor 146 mean, Experiment A): 41100 cpm | cpm1 ([3]; Donor 147, Experiment A): 55543 cpm | cpm2 ([3]; Donor 147, Experiment A): 49035 cpm | cpm3 ([3]; Donor 147, Experiment A): 44985 cpm | mean cpm ([3]; Donor 147 mean, Experiment A): 49854 cpm | cpm1 ([3]; donor 121, Experiment B): 21938 cpm | cpm2 ([3]; donor 121, Experiment B): 35400 cpm | cpm3 ([3]; donor 121, Experiment B): 23877 cpm | mean cpm ([3]; donor 121 mean, Experiment B): 27072 cpm | cpm1 ([3]; donor 194, Experiment B): 13660 cpm | cpm2 ([3]; donor 194, Experiment B): 16717 cpm | cpm3 ([3]; donor 194, Experiment B): 17866 cpm | mean cpm ([3]; donor 194 mean, Experiment B): 16081 cpm | mean of both ([3]; mean of Donors 146 and 147, Experiment A): 45477 cpm | mean of both ([3]; mean of donors 121 and 194, Experiment B): 21576 cpm | Anti-HBsAg (mIU/ml) post-first, Mean [4]: 68 mIU/ml | Anti-HBsAg (mIU/ml) post-second, Mean [4]: 4135** mIU/ml | induction of serum IL-12 p40, IL-6 and TNF-α, in words [5]: induced IL-12 p40, IL-6, and TNF-α | IFN-α (pg/ml) Donor 1 ([6]; Donor 1, 20 μg/ml, 24 h): 142 pg/mL | IFN-γ (pg/ml) Donor 1 ([6]; Donor 1, 20 μg/ml, 24 h): 2157 pg/mL | IFN-α (pg/ml) Donor 2 ([6]; Donor 2, 20 μg/ml, 24 h): 0 pg/mL | IFN-γ (pg/ml) Donor 2 ([6]; Donor 2, 20 μg/ml, 24 h): 171 pg/mL | IFN-α Donor 9 ([6]; Donor 9, 20 μg/ml, 24 h): 8 | IFN-γ Donor 9 ([6]; Donor 9, 20 μg/ml, 24 h): 134 | IFN-α Donor 10 ([6]; Donor 10, 20 μg/ml, 24 h): 10 | IFN-γ Donor 10 ([6]; Donor 10, 20 μg/ml, 24 h): 7 | IFN-α Donor 11 ([6]; Donor 11, 20 μg/ml, 24 h): 1 | IFN-γ Donor 11 ([6]; Donor 11, 20 μg/ml, 24 h): 56 | IFN-α Donor 12 ([6]; Donor 12, 20 μg/ml, 24 h): 15 | IFN-γ Donor 12 ([6]; Donor 12, 20 μg/ml, 24 h): 30 | IFN-α ([6]; Table 9, donor 28089): 10 pg/mL | IFN-γ ([6]; Table 9, donor 28089): 12 pg/mL | IFN-α ([6]; Table 9, donor 28090): 67 pg/mL | IFN-γ ([6]; Table 9, donor 28090): 7 pg/mL | IFN-α mean ([6]; Table 9, mean of donors): 39 pg/mL | IFN-γ mean ([6]; Table 9, mean of donors): 10 pg/mL | IFN-α ([6]; Table 11, donor 28042): 39 pg/mL | IFN-γ ([6]; Table 11, donor 28042): 691 pg/mL | IFN-α ([6]; Table 11, donor 28043): 0 pg/mL | IFN-γ ([6]; Table 11, donor 28043): 268 pg/mL | IFN-α ([6]; Table 11, donor 28044): 11 pg/mL | IFN-γ ([6]; Table 11, donor 28044): 590 pg/mL | IFN-α ([6]; Table 11, donor 28045): 64 pg/mL | IFN-γ ([6]; Table 11, donor 28045): 1306 pg/mL | IFN-α mean ([6]; Table 11, mean of donors): 29 pg/mL | IFN-γ mean ([6]; Table 11, mean of donors): 714 pg/mL | IFN-α ([6]; Table 13, donor 28156): 26 pg/mL | IFN-γ ([6]; Table 13, donor 28156): 1162 pg/mL | IFN-α ([6]; Table 13, donor 28157): 142 pg/mL | IFN-γ ([6]; Table 13, donor 28157): 729 pg/mL | IFN-α ([6]; Table 13, donor 28158): 78 pg/mL | IFN-γ ([6]; Table 13, donor 28158): 192 pg/mL | IFN-α ([6]; Table 13, donor 28159): 20 pg/mL | IFN-γ ([6]; Table 13, donor 28159): 329 pg/mL | IFN-α mean ([6]; Table 13, mean of donors): 67 pg/mL | IFN-γ mean ([6]; Table 13, mean of donors): 603 pg/mL | IFN-γ (pg/ml) 28065 ([6]; donor 28065 (high background), 20 ug/ml, 24 h, + PLGA = premixed with 100 μg/ml cPLGA, 1000 = outside assay limits): 1000 pg/mL | IFN-α (pg/ml) 28065 ([6]; donor 28065, 20 ug/ml, 24 h, + PLGA = premixed with 100 μg/ml cPLGA): 13 pg/mL | IFN-α (pg/ml) 28066 [6, 8]: 0 pg/mL | IFN-γ (pg/ml) 28066 [6, 8]: 8 pg/mL | IFN-α (pg/ml) 28067 [6, 9]: 22 pg/mL | IFN-γ (pg/ml) 28067 [6, 9]: 57 pg/mL | IFN-α (pg/ml) 28068 [6, 10]: 64 pg/mL | IFN-γ (pg/ml) 28068 [6, 10]: 510 pg/mL | IFN-a ([6]; donor 28185, Table 15): 25 pg/mL | IFN-g ([6]; donor 28185, Table 15): 189 pg/mL | IFN-a ([6]; donor 28186, Table 15): 16 pg/mL | IFN-g ([6]; donor 28186, Table 15): 24 pg/mL | IFN-a ([6]; donor 28187, Table 15): 4 pg/mL | IFN-g ([6]; donor 28187, Table 15): 95 pg/mL | IFN-a ([6]; donor 28188, Table 15): 146 pg/mL | IFN-g ([6]; donor 28188, Table 15): 11 pg/mL | IFN-α (pg/ml) mean [6, 11]: 71 pg/mL | IFN-γ (pg/ml) mean [6, 11]: 1164 pg/mL | IFN-α mean [6, 12]: 8 | IFN-γ mean [6, 12]: 56 | IFN-α (pg/ml) mean [6, 13]: 25 pg/mL | IFN-γ (pg/ml) mean [6, 13]: 394 pg/mL | IFN-a (pg/ml) mean [6, 14]: 48 pg/mL | IFN-g (pg/ml) mean [6, 14]: 80 pg/mL | IFN-a (pg/ml) ×2 ([6]; mean ×2, Table 15): 95 pg/mL | IFN-g (pg/ml) ×4 ([6]; mean ×4, Table 15): 319 pg/mL

OCCCCCCCCCCCCO [1,12-dihydroxydodecane]
solubility [7]: < 5000 µg/mL

From patent US9028845B2, “Chimeric immunomodulatory compounds and methods of using the same-IV” (Dynavax Technologies Corporation, priority 2001, dated 2015)
